What was measured:
[1] = test system: SUDHL6 xenograft tumor tissue; test: Reduced glutathione measurement in mouse tumor tissue after one IKE dose; format: in vivo, NCG mice; conditions: single dose IKE 50 mg/kg, starting at 4 hours
SUDHL6 cells = test: qPCR analysis of gene expression in cell culture; format: cell-based
Method: To perform qPCR analysis in cell culture, DLBCL cells were treated with 0-10 μM IKE, Fer-1, or β-Me for the indicated times. RNA was extracted using the Qiashredder and Qiagen RNeasy Mini kits (Qiagen) according to the manufacture's protocol. 2 μg RNA from each sample was reversed transcribed to cDNA using a High Capacity cDNA Reverse Transcription Kit (Thermo Fisher Scientific, 4368814). Quantitative PCR reactions were performed using Power SYBR Green PCR Master Mix (Applied Biosystems) with triplicate measurement on ViiA 7 Real-Time PCR instrument (Thermo Fischer). HPRT1 was used as an internal reference. Differences in mRNA levels compared with HPRT1 were computed between vehicle and experimental groups using the ΔΔCt method. The primers used in the study were listed below.

[2] = test system: SUDHL6 subcutaneous xenografts; test: IKE efficacy study, tumor volume; format: in vivo, NCG mice; conditions: starting from day 9 of treatment
Method: IKE was dissolved in 5% DMSO/95% HBSS at pH 4 to create a 4 mg/mL solution. 5% DMSO/95% HBSS at pH 4 was used as vehicle 1. IKE PEG-PLGA nanoparticles and unfunctionalized PEG-PLGA nanoparticles (without IKE loading) (vehicle 2) prepared with a NanoAssemblr were dialyzed with deionized water overnight, the water was changed at least twice. Dialyzed IKE-PEG-PLGA nanoparticles and unfunctional PEG-PLGA nanoparticles were concentrated by Amicon Ultra-15 Centrifugal Filter Units to create a solution with 80 mg/mL PEG-PLGA nanoparticles. All above solutions were sterilized by filter through a 0.2 μm syringe filter.
NCG mice, 6-weeks old, were injected with 10 million SUDHLO-6 cells subcutaneously. […] Tumor volume was measured daily with electronic caliper and calculated using the formula: 0.5×length×width^2. […] Tumor volume change was analyzed in Prism using one-way ANOVA. Tumor tissues were analyzed as described in the RT-qPCR, immunofluorescence, TBARS, and lipidomics sections below.
We investigated the efficacy of IKE in vivo in male NCG mice bearing SUDHL6 subcutaneous xenografts. […] During the experimental period, mouse weight and tumor volume were measured daily to determine IKE's antitumor effect and possible toxicity. Tumor growth was calculated as the fold change relative to original tumor volume on day 0 before the first dose (FIG. 4C). […]

[3] = test system: SUDHL6 xenograft tumor tissue; test: qPCR in mouse tumor tissue after one IKE dose; format: in vivo, NCG mice; conditions: single dose IKE 50 mg/kg, starting at 3 h
Method: NCG mice 6-weeks of age were injected with 10 million SUDHL-6 cells subcutaneously. Visible tumors appeared after 2 weeks. Tumor size was measured by electronic caliper every 2 days and calculated using the formula: 0.5×length×width^2. After another 2 weeks, mice were randomly separated into group of 3 mice per cage with roughly tumor size (1200 mm^3). Mice were dosed at 50 mg/kg IKE, 22 mg/kg IKE, 22 mg/kg IKE PEG-PLGA nanoparticles (equal to 600 mg/kg PEG-PLGA) using IP at one time and samples were collected at 0, 1, 2, 3, 4, 6, and 24 h with three mice per time point. Mice were dosed with Vehicle 1 and Vehicle 2 (600 mg/kg PEG-PLGA) by IP and samples were collected at 24 h. […] Plasma samples were collected and analyzed as described above. […] After drying, the samples were resuspended in 100 μL of methanol and analyzed on the LC-MS with each sample analyzed twice. […] The concentration of IKE in the sample was determined by comparison against a standard curve of IKE in the range of 25 to 2,500 ng/mL. […] Pharmacokinetics parameters of IKE were assessed using Prism fitted with Lognormal of one phase exponential decay. […]
To perform qPCR analysis in mouse tumor tissue, ˜20 mg of tumor tissue was prepared and kept on dry ice. […] RNA was reverse transcribed to cDNA then used in quantitative PCR experiment following the same steps used in cell qPCR experiment.

## CC(C)Oc1ccc(C(=O)Cn2ccnc2)cc1-n1c(CN2CCN(C(=O)COc3ccc(Cl)cc3)CC2)nc2ccccc2c1=O [IKE, Imidazole ketone erastin]
[1]
  GSH depletion in tumor tissue: over 50%
SUDHL6 cells; DLBCL cells, IKE treatment (data not shown)
  GPX4, CBS and ACSL4 expression: not upregulated
SUDHL6 cells; SUDHL6 cells following IKE treatment
  SLC7A11, PTGS2 and CHAC1 expression: significantly increased
SUDHL6 cells; SUDHL-6 cells, 500 nM IKE
  SLC7A11 expression induced starting from (time post incubation): 3 h
  expression of lipid metabolism genes ACC1, ELOVL7, ATGL, sPLA2F, LPEAT1, LPCAT4, ALOX12, ALOX15: upregulated
  highest mRNA change (CHAC1): 33 fold
SUDHL6 cells; SUDHL-6 cells, 500 nM IKE, starting from 5 minutes
  increased PTGS2 expression: over 10 fold
SUDHL6 cells; SUDHL-6 cells, 500 nM IKE, starting from post 5 minutes
  increased CHAC1 expression: over 5 fold
[2]; 23 mg/kg i.p. once daily
  tumor growth (tumor volume fold change vs day 0): significant decrease in tumor growth
[2]; 40 mg/kg i.p. once daily
  tumor growth (tumor volume fold change vs day 0): significant decrease in tumor growth
[3]
  CHAC1 mRNA upregulation in tumor: 2 fold

From US20210267978A1, “NANOPARTICLE FORMULATIONS OF IKE AND METHODS OF USE THEREOF” (The Trustees of Columbia University in the City of New York, priority 2018, published 2021)
